Assay results taken from ChEMBL document CHEMBL2407006, “Selective cytotoxic effects on human breast carcinoma of new methoxylated flavonoids from Euryops arabicus grown in Saudi Arabia” (Eur J Med Chem, 2013).
Activity calls are given as the source filed them. The rule behind the calls is not given here.

System: MCF7
Assay: Cell cycle arrest in human MCF7 cells assessed as reduction in S-phase accumulation at IC50 after 24 hrs by FACs analysis (reference value: 34.1+/-1.1 %)
Format: functional
Set-up: scale not given: the % may be the effect or the level left
Conditions: not given

| Compound | Activity |
| --- | --- |
| COc1ccc(-c2cc(=O)c3cc(OC)c(O)c(OC)c3o2)cc1OC | 15.6% |
| COc1cc(O)c2c(=O)cc(-c3ccc(OC)c(OC)c3)oc2c1 | 13% |

System: HepG2
Assay: Antiproliferative activity against human HepG2 cells after 48 hrs by MTT assay
Format: functional, cell-based
Conditions: HepG2, 48 h

| Compound | IC50 |
| --- | --- |
| COc1ccc(-c2cc(=O)c3c(O)c(OC)c(OC)c(OC)c3o2)cc1 [GARDENIN B] | 40 µM |
| COc1ccc(-c2cc(=O)c3cc(OC)c(O)c(OC)c3o2)cc1OC | 20 µM |
| COc1cc(-c2cc(=O)c3cc(OC)c(OC)c(O)c3o2)cc(O)c1OC | 30 µM |
| COc1ccc(-c2cc(=O)c3c(O)c(OC)c(OC)c(O)c3o2)cc1OC | 45 µM |
| COc1cc(O)c2c(=O)cc(-c3ccc(OC)c(OC)c3)oc2c1 | 15 µM |
| COc1ccc(-c2oc3c(OC)c(OC)c(OC)c(O)c3c(=O)c2OC)cc1 [5-HYDROXYAURANETIN] | 35 µM |
| COc1cc(-c2cc(=O)c3c(O)cc(OC)c(OC)c3o2)cc(OC)c1OC | 25 µM |
| C=C1C[C@]23CC[C@H]4C(CO)(CO)C(=O)CC[C@]4(C)[C@H]2CC[C@@H]1C3 | 50 µM |
| O=c1[nH]cc(F)c(=O)[nH]1 [FLUOROURACIL] | 10 µM |

System: WI-38
Assay: Antiproliferative activity against human WI38 cells after 48 hrs by MTT assay
Format: functional, cell-based
Conditions: WI-38, 48 h

| Compound | IC50 |
| --- | --- |
| COc1ccc(-c2cc(=O)c3c(O)c(OC)c(OC)c(OC)c3o2)cc1 [GARDENIN B] | 75 µM |
| COc1ccc(-c2cc(=O)c3cc(OC)c(O)c(OC)c3o2)cc1OC | 115 µM |
| COc1cc(-c2cc(=O)c3cc(OC)c(OC)c(O)c3o2)cc(O)c1OC | 105 µM |
| COc1ccc(-c2cc(=O)c3c(O)c(OC)c(OC)c(O)c3o2)cc1OC | 95 µM |
| COc1cc(O)c2c(=O)cc(-c3ccc(OC)c(OC)c3)oc2c1 | 105 µM |
| COc1ccc(-c2oc3c(OC)c(OC)c(OC)c(O)c3c(=O)c2OC)cc1 [5-HYDROXYAURANETIN] | 80 µM |
| COc1cc(-c2cc(=O)c3c(O)cc(OC)c(OC)c3o2)cc(OC)c1OC | 100 µM |
| C=C1C[C@]23CC[C@H]4C(CO)(CO)C(=O)CC[C@]4(C)[C@H]2CC[C@@H]1C3 | 90 µM |
| O=c1[nH]cc(F)c(=O)[nH]1 [FLUOROURACIL] | 10 µM |

System: not listed separately
Assay: Antioxidant activity assessed as ABTS free radical scavenging activity by spectrophotometry
Format: functional
Set-up: concentration or dose not given beside the values
Conditions: not given

| Compound | Activity |
| --- | --- |
| COc1ccc(-c2cc(=O)c3c(O)c(OC)c(OC)c(OC)c3o2)cc1 [GARDENIN B] | 75.4% |
| COc1ccc(-c2cc(=O)c3cc(OC)c(O)c(OC)c3o2)cc1OC | 52.7% |
| COc1cc(-c2cc(=O)c3cc(OC)c(OC)c(O)c3o2)cc(O)c1OC | 56.8% |
| COc1ccc(-c2cc(=O)c3c(O)c(OC)c(OC)c(O)c3o2)cc1OC | 78.3% |
| COc1cc(O)c2c(=O)cc(-c3ccc(OC)c(OC)c3)oc2c1 | 45.8% |
| O=C1O[C@H]([C@@H](O)CO)C(O)=C1O | 80% |
| COc1ccc(-c2oc3c(OC)c(OC)c(OC)c(O)c3c(=O)c2OC)cc1 [5-HYDROXYAURANETIN] | 71.1% |
| COc1cc(-c2cc(=O)c3c(O)cc(OC)c(OC)c3o2)cc(OC)c1OC | 54.2% |
| C=C1C[C@]23CC[C@H]4C(CO)(CO)C(=O)CC[C@]4(C)[C@H]2CC[C@@H]1C3 | 34.3% |

System: Vero
Assay: Antiproliferative activity against african green monkey Vero cells after 48 hrs by MTT assay
Format: functional, cell-based
Conditions: Chlorocebus sabaeus

| Compound | IC50 |
| --- | --- |
| COc1ccc(-c2cc(=O)c3c(O)c(OC)c(OC)c(OC)c3o2)cc1 [GARDENIN B] | 85 µM |
| COc1ccc(-c2cc(=O)c3cc(OC)c(O)c(OC)c3o2)cc1OC | 95 µM |
| COc1cc(-c2cc(=O)c3cc(OC)c(OC)c(O)c3o2)cc(O)c1OC | 85 µM |
| COc1ccc(-c2cc(=O)c3c(O)c(OC)c(OC)c(O)c3o2)cc1OC | 100 µM |
| COc1cc(O)c2c(=O)cc(-c3ccc(OC)c(OC)c3)oc2c1 | 125 µM |
| COc1ccc(-c2oc3c(OC)c(OC)c(OC)c(O)c3c(=O)c2OC)cc1 [5-HYDROXYAURANETIN] | 90 µM |
| COc1cc(-c2cc(=O)c3c(O)cc(OC)c(OC)c3o2)cc(OC)c1OC | 105 µM |
| C=C1C[C@]23CC[C@H]4C(CO)(CO)C(=O)CC[C@]4(C)[C@H]2CC[C@@H]1C3 | 90 µM |
| O=c1[nH]cc(F)c(=O)[nH]1 [FLUOROURACIL] | 8 µM |

System: MCF7
Assay: Antiproliferative activity against human MCF7 cells after 48 hrs by MTT assay
Format: functional, cell-based
Conditions: MCF7, 48 h

| Compound | IC50 |
| --- | --- |
| COc1ccc(-c2cc(=O)c3c(O)c(OC)c(OC)c(OC)c3o2)cc1 [GARDENIN B] | 30 µM |
| COc1ccc(-c2cc(=O)c3cc(OC)c(O)c(OC)c3o2)cc1OC | 15 µM |
| COc1cc(-c2cc(=O)c3cc(OC)c(OC)c(O)c3o2)cc(O)c1OC | 25 µM |
| COc1ccc(-c2cc(=O)c3c(O)c(OC)c(OC)c(O)c3o2)cc1OC | 35 µM |
| COc1cc(O)c2c(=O)cc(-c3ccc(OC)c(OC)c3)oc2c1 | 10 µM |
| COc1ccc(-c2oc3c(OC)c(OC)c(OC)c(O)c3c(=O)c2OC)cc1 [5-HYDROXYAURANETIN] | 30 µM |
| COc1cc(-c2cc(=O)c3c(O)cc(OC)c(OC)c3o2)cc(OC)c1OC | 20 µM |
| C=C1C[C@]23CC[C@H]4C(CO)(CO)C(=O)CC[C@]4(C)[C@H]2CC[C@@H]1C3 | 40 µM |

System: MCF7
Assay: Cell cycle arrest in human MCF7 cells assessed as increase in pre-G apoptotic fraction at IC50 after 24 hrs by FACs analysis relative to untreated control
Format: functional, cell-based
Conditions: not given

| Compound | Activity |
| --- | --- |
| COc1cc(O)c2c(=O)cc(-c3ccc(OC)c(OC)c3)oc2c1 | Active |
| O=c1[nH]cc(F)c(=O)[nH]1 [FLUOROURACIL] | Active |

System: PBL
Assay: Immunostimulant activity in PHA-stimulated human PBL assessed as lymphocyte transformation at 2 mM after 72 hrs by Giemsa staining method
Format: functional
Conditions: not given

| Compound | Activity |
| --- | --- |
| COc1ccc(-c2cc(=O)c3c(O)c(OC)c(OC)c(OC)c3o2)cc1 [GARDENIN B] | 20% |
| COc1ccc(-c2cc(=O)c3cc(OC)c(O)c(OC)c3o2)cc1OC | 55% |
| COc1cc(-c2cc(=O)c3cc(OC)c(OC)c(O)c3o2)cc(O)c1OC | 35% |
| COc1ccc(-c2cc(=O)c3c(O)c(OC)c(OC)c(O)c3o2)cc1OC | 15% |
| COc1cc(O)c2c(=O)cc(-c3ccc(OC)c(OC)c3)oc2c1 | 65% |
| COc1ccc(-c2oc3c(OC)c(OC)c(OC)c(O)c3c(=O)c2OC)cc1 [5-HYDROXYAURANETIN] | 25% |
| COc1cc(-c2cc(=O)c3c(O)cc(OC)c(OC)c3o2)cc(OC)c1OC | 45% |
| C=C1C[C@]23CC[C@H]4C(CO)(CO)C(=O)CC[C@]4(C)[C@H]2CC[C@@H]1C3 | 10% |

System: MCF7
Assay: Cell cycle arrest in human MCF7 cells assessed as reduction in S-phase accumulation at IC50 after 24 hrs by FACs analysis
Format: functional, cell-based
Conditions: not given

| Compound | Activity |
| --- | --- |
| O=c1[nH]cc(F)c(=O)[nH]1 [FLUOROURACIL] | Active |

System: MCF7
Assay: Cell cycle arrest in human MCF7 cells assessed as reduction in G2/M-phase accumulation at IC50 after 24 hrs by FACs analysis relative to untreated control
Format: functional, cell-based
Conditions: not given

| Compound | Activity |
| --- | --- |
| COc1ccc(-c2cc(=O)c3cc(OC)c(O)c(OC)c3o2)cc1OC | Active |
| COc1cc(O)c2c(=O)cc(-c3ccc(OC)c(OC)c3)oc2c1 | Active |

System: MCF7
Assay: Cell cycle arrest in human MCF7 cells assessed as increase in G0/G1-phase accumulation at IC50 after 24 hrs by FACs analysis
Format: functional, cell-based
Conditions: not given

| Compound | Activity |
| --- | --- |
| O=c1[nH]cc(F)c(=O)[nH]1 [FLUOROURACIL] | Active |

System: MCF7
Assay: Cell cycle arrest in human MCF7 cells assessed as increase in G0/G1-phase accumulation at IC50 after 24 hrs by FACs analysis (reference value: 55.6+/-0.6 %)
Format: functional
Conditions: not given

| Compound | Activity |
| --- | --- |
| COc1ccc(-c2cc(=O)c3cc(OC)c(O)c(OC)c3o2)cc1OC | 73.4% |
| COc1cc(O)c2c(=O)cc(-c3ccc(OC)c(OC)c3)oc2c1 | 71.3% |
